According to ChEMBL document CHEMBL5154769, “Discovery of the First-in-Class Agonist-Based SOS1 PROTACs Effective in Human Cancer Cells Harboring Various KRAS Mutations” (J Med Chem, 2022):
Active and inactive are the calls of the source. The rule behind the calls is not given here.

Columns and labels:
[1] = Observed MRT (infinity) in BALB/c mouse at 10 mg/kg, ip measured after 24 hrs by LC-MS/MS analysis; format: ADME, organism-based; details: in vivo
[2] = target: T1, von Hippel-Lindau disease tumor suppressor/Son of sevenless homolog 1 (Homo sapiens, UniProt Q07889+P40337, G12C); experiment: Protac activity at VHL/SOS1 in human MIA PaCa-2 cells harboring KRAS G12C mutant assessed as SOS1 protein degradation incubated for 24 hr by Western blot analysis; format: cell-based
T1 sequence (P40337 whole entry, looked up, stated change not applied): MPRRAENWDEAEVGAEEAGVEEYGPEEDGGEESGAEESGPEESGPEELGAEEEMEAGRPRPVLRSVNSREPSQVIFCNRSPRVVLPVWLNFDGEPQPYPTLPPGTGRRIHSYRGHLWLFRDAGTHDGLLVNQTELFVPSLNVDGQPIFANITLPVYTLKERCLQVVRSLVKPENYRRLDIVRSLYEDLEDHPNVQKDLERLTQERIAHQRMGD
T1 sequence (Q07889 whole entry, looked up, stated change not applied): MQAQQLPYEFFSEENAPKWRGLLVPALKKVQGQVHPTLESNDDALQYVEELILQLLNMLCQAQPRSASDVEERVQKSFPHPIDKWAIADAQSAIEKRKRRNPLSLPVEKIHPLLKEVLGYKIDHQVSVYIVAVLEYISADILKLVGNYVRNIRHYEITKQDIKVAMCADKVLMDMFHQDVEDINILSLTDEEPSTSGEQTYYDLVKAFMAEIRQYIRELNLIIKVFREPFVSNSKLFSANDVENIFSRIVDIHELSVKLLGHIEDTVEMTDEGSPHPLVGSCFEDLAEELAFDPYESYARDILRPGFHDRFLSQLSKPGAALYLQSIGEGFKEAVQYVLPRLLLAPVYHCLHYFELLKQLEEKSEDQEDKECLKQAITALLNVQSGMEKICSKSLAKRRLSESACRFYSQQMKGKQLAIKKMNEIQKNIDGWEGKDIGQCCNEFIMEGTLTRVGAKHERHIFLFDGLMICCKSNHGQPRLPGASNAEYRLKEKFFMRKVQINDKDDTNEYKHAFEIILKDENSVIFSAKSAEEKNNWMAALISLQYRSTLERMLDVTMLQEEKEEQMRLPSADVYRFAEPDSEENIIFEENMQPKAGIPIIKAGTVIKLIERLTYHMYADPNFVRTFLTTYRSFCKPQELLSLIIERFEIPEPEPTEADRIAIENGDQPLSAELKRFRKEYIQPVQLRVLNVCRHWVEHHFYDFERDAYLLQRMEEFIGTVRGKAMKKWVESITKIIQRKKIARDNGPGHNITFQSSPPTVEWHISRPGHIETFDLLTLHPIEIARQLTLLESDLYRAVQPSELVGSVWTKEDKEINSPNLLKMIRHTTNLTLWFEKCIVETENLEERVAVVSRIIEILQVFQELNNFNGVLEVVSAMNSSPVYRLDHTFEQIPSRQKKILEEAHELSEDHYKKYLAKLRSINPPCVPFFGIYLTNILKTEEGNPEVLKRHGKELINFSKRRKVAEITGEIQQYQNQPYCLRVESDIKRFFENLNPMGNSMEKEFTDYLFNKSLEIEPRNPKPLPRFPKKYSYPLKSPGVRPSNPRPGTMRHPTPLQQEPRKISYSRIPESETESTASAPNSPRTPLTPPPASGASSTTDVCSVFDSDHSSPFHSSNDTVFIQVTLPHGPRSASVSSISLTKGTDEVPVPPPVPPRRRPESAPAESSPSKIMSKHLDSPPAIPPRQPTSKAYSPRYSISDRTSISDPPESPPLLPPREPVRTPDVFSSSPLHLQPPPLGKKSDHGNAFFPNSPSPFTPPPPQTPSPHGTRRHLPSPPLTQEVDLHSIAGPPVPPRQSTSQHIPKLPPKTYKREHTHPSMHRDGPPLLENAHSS

[3] = target: T2, von Hippel-Lindau disease tumor suppressor/Son of sevenless homolog 1 (Homo sapiens, UniProt Q07889+P40337); experiment: Protac activity at VHL/SOS1 in human NCI-H358 cells assessed as SOS1 protein degradation at 1 uM and measured after 4 to 24 hr by western blot analysis; format: cell-based; details: time 4-24 hrs
Target sequence in this assay (P40337 whole entry, looked up): as the sequence (P40337 whole entry, looked up, stated change not applied) above
Target sequence in this assay (Q07889 whole entry, looked up): as the sequence (Q07889 whole entry, looked up, stated change not applied) above

[4] = Half life in BALB/c mouse at 10 mg/kg, ip measured after 24 hrs by LC-MS/MS analysis; format: ADME, organism-based; details: in vivo
[5] = target: T1, von Hippel-Lindau disease tumor suppressor/Son of sevenless homolog 1; experiment: Protac activity at VHL/SOS1 in human NCI-H358 cells harboring KRAS G12C mutant assessed as SOS1 protein degradation incubated for 24 hr by Western blot analysis; format: cell-based
[6] = target: T2, von Hippel-Lindau disease tumor suppressor/Son of sevenless homolog 1; experiment: Protac activity at VHL/SOS1 in human A549 cells harboring KRAS […] mutant assessed as SOS1 protein degradation incubated for 24 hr by Western blot analysis; format: cell-based
[7] = target: Von Hippel-Lindau disease tumor suppressor/Elongin B/Elongin C (Homo sapiens, UniProt P40337); experiment: Binding affinity to VCB E3 ligase (unknown origin) assessed as binary equilibrium dissociation constant by surface plasmon resonance analysis; format: protein-complex assay
Sequence of Von Hippel-Lindau disease tumor suppressor/Elongin B/Elongin C (P40337 whole entry, looked up): as the sequence (P40337 whole entry, looked up, stated change not applied) above

Homo sapiens = species on record: Homo sapiens; experiment: Co-operativity factor, Ratio of Kd for Binding affinity to VCB E3 ligase (unknown origin) assessed as binary equilibrium dissociation constant to Kd for binding affinity to SOS1/VCB E3 ligase (unknown origin) assessed as ternary dissociation constant
A549 = experiment: Antiproliferative activity against human A549 cells harboring KRAS G12S mutant assessed as cell growth inhibition incubated for 7 days by CellTiter-Glo 3D cell viability assay; format: functional, cell-based; details: A549, 168 h
[8] = target: von Hippel-Lindau disease tumor suppressor/Son of sevenless homolog 1 (Homo sapiens, UniProt Q07889+P40337, G12V); experiment: Protac activity at VHL/SOS1 in human SW-620 cells harboring KRAS G12V mutant assessed as SOS1 protein degradation incubated for 24 hr by Western blot analysis; format: cell-based
[9] = Binding affinity to SOS1/VCB E3 ligase (unknown origin) assessed as ternary dissociation constant by surface plasmon resonance analysis; set-up: species or system Homo sapiens
[10] = target: T2, von Hippel-Lindau disease tumor suppressor/Son of sevenless homolog 1; experiment: Protac activity at VHL/SOS1 in human ASPC1 cells assessed as SOS1 protein degradation at 1 uM incubated measured after 16 hr by western blot analysis; format: cell-based
Target sequence in this assay (P40337 whole entry, looked up): as the sequence (P40337 whole entry, looked up, stated change not applied) above
Target sequence in this assay (Q07889 whole entry, looked up): as the sequence (Q07889 whole entry, looked up, stated change not applied) above

[11] = Cmax in BALB/c mouse at 10 mg/kg, ip measured after 24 hrs by LC-MS/MS analysis; format: ADME, organism-based; set-up: dose 10 mg/kg, time 24 hrs, route ip; details: in vivo
[12] = target: T2, von Hippel-Lindau disease tumor suppressor/Son of sevenless homolog 1; experiment: Protac activity at VHL/SOS1 in human NCI-H358 cells assessed as SOS1 protein degradation at 1 uM incubated for 24 hr by Western blot analysis relative to control; format: cell-based
Target sequence in this assay (P40337 whole entry, looked up): as the sequence (P40337 whole entry, looked up, stated change not applied) above
Target sequence in this assay (Q07889 whole entry, looked up): as the sequence (Q07889 whole entry, looked up, stated change not applied) above

HEK-293T = experiment: Cytotoxicity against human HEK-293T cells assessed as cell growth inhibition incubated for 7 days by CellTiter-Glo 3D cell viability assay; format: toxicity, cell-based; details: 168 h, time 7 day
[13] = AUClast in BALB/c mouse at 10 mg/kg, ip measured after 24 hrs by LC-MS/MS analysis; format: ADME, organism-based; set-up: dose 10 mg/kg, time 24 hrs, route ip; details: in vivo
MIA PaCa-2 = experiment: Antiproliferative activity against human MIA PaCa-2 cells harboring KRAS G12C mutant assessed as cell growth inhibition incubated for 7 days by CellTiter-Glo 3D cell viability assay; format: functional, cell-based; details: MIA PaCa-2, 168 h
NCI-H358 [14] = experiment: Effect of compound on human NCI-H358 cells assessed as decrease in phophorylated ERK level at 1 uM and measured after 6 to 24 hr by Western blot analysis; format: functional, cell-based; details: time 6-24 hrs
NCI-H358 [15] = experiment: Effect of compound on human NCI-H358 cells stimulated with EGF assessed as decrease in KRAS-GTP level incubated for 24 hr by RAS-G-LISA assay; format: functional, cell-based
[16] = target: von Hippel-Lindau disease tumor suppressor/Son of sevenless homolog 1 (Homo sapiens, UniProt Q07889+P40337, G12R); experiment: Protac activity at VHL/SOS1 in human CAL-62 cells harboring KRAS G12R mutant assessed as SOS1 protein degradation incubated for 24 hr by Western blot analysis; format: cell-based
Mus musculus [17] = experiment: In vivo inhibition of phosphorylated ERK level in BALB/c nude mouse xenografted with human NCI-H358 cells at 20 to 50 mg/kg, IT incubated for 21 days by immunohistochemistry analysis; format: functional, organism-based; details: dose 20-50 mg/kg, time 21.0 day
NCI-H358 [18] = experiment: Effect of compound on human NCI-H358 cells assessed as increase in phophorylated ERK level at 1 uM incubated for 4 hr by Western blot analysis; format: functional, cell-based
Mus musculus [19] = experiment: In vivo degradation of SOS1 in BALB/c nude mouse xenografted with human NCI-H358 cells at 20 to 50 mg/kg, IT incubated for 21 days by immunohistochemistry analysis; format: functional, organism-based; details: dose 20-50 mg/kg, time 21.0 day
[20] = Toxicity in BALB/c nude mouse xenografted with human NCI-H358 cells assessed as effect on body weight at 20 to 50 mg/kg, IT twice weekly for 5 weeks; format: organism-based; details: in vivo, other, 840 h, dose 20-50 mg/kg
[21] = target: T3, von Hippel-Lindau disease tumor suppressor/Son of sevenless homolog 1 (Homo sapiens, UniProt Q07889+P40337, G12D); experiment: Protac activity at VHL/SOS1 in human ASPC1 cells harboring KRAS G12D mutant assessed as SOS1 protein degradation incubated for 24 hr by Western blot analysis; format: cell-based
T3 sequence (P40337 whole entry, looked up, stated change not applied): as the sequence (P40337 whole entry, looked up, stated change not applied) above
T3 sequence (Q07889 whole entry, looked up, stated change not applied): as the sequence (Q07889 whole entry, looked up, stated change not applied) above

NCI-H358 [22] = experiment: Antitumor activity against human NCI-H358 cells xenografted in BALB/c nude mouse assessed as tumor growth inhibition at 10 mg/kg/day, ip incubated for 21 days; format: functional; details: NCI-H358, 504 h, time 21 day, read-out: TGI
[23] = Toxicity in BALB/c nude mouse xenografted with human NCI-H358 cells assessed as effect on body weight at 10 to 20 mg/kg/day, ip for 21 days and measured every 3 day; format: organism-based; details: in vivo, 504 h, dose 10-20 mg/kg/day, time 21 day
[24] = target: T3, von Hippel-Lindau disease tumor suppressor/Son of sevenless homolog 1; experiment: Protac activity at VHL/SOS1 in human SK-LU-1 cells harboring KRAS G12D mutant assessed as SOS1 protein degradation incubated for 24 hr by Western blot analysis; format: cell-based
SK-LU-1 = experiment: Antiproliferative activity against human SK-LU-1 cells harboring KRAS G12D mutant assessed as cell growth inhibition incubated for 7 days by CellTiter-Glo 3D cell viability assay; format: functional, cell-based; details: SK-LU-1, 168 h
[25] = Acute toxicity in BALB/c mouse assessed as change in body weight at 20 mg/kg, ip once daily for 7 days; format: organism-based; details: in vivo, 168 h, time 7 day
[26] = Tmax in BALB/c mouse at 10 mg/kg, ip measured after 24 hrs by LC-MS/MS analysis; format: ADME, organism-based; details: in vivo

With `Cc1cc(Cn2c(N3CC4(CNC4)C3)nc3c(N4CCN(CCCCCCCCC(=O)N[C@H](C(=O)N5C[C@H](O)C[C@H]5C(=O)N[C@@H](C)c5ccc(-c6scnc6C)cc5)C(C)(C)C)CC4)cc(Cl)cc32)cc(C)c1F` the MRT inf [1] was 10.2 h, the DC50 [2] was 255 nM and the Activity [3] was “Active”. The half-life [4] was 8.64 h, the DC50 [5] was 98 nM and the DC50 [6] was 22 nM. For the same molecule, the Kd [7] was 56 nM, the Ratio (Homo sapiens) was 15.1 and the IC50 (A549) was 232 nM. The DC50 [8] was 125 nM, the Kd [9] was 3.7 nM and the Activity [10] was “Active”. For the same molecule, the Cmax [11] was 1220 ng/mL, the Activity [12] was 92.5% and the Activity (HEK-293T) was “Non-Toxic”. For the same molecule, the AUC(0-t) at 24 h [13] was 3900 ng·h/mL, the IC50 (MIA PaCa-2) was 218 nM and the Activity (NCI-H358 [14]) was “Active”. For the same molecule, the Activity (NCI-H358 [15]) was “Active”, the DC50 [16] was 126 nM and the Activity (Mus musculus [17]) was “Active”. For the same molecule, the Activity (NCI-H358 [18]) was “Active”, the Activity (Mus musculus [19]) was “Active” and the Activity [20] was “Non-Toxic”. For the same molecule, the DC50 [21] was 119 nM, the inhibition in vivo at 10 mg/kg/day (NCI-H358 [22]) was 72.5% and the Activity [23] was “Non-Toxic”. The DC50 [24] was 104 nM, the IC50 (SK-LU-1) was 115 nM and the Activity [25] was “Non-Toxic”. The Tmax [26] was 0.25 h.
